Assay results published in PubChem BioAssay (NCI).
“And” between values parts separate entries of the source, which are not always exact repeats. Equal values may be shown once.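 Exposure lasted 48 hours, with cells grown in 96-well plates and compounds tested at five concentrations. GI50 is the concentration that inhibits growth by half. At the TGI there is no net growth.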

Key:
Test in all cases: inhibition of tumour cell growth, NCI panel, 48 h
T-47D breast = test system: T-47D breast
NCI/ADR-RES ovarian = test system: NCI/ADR-RES ovarian
NCI-H23 lung = test system: NCI-H23 lung
OVCAR-4 ovarian = test system: OVCAR-4 ovarian
MOLT-4 leukemia = test system: MOLT-4 leukemia
U251 CNS = test system: U251 CNS
MCF7 breast = test system: MCF7 breast
SN12C renal = test system: SN12C renal
DU-145 prostate = test system: DU-145 prostate
SR leukemia = test system: SR leukemia

## Cc1ccc(-c2c(C#N)[n+](=O)c3cc(F)c(F)cc3n2[O-])cc1
T-47D breast
  GI50: 28.4 µM
  TGI: 67.5 µM
NCI/ADR-RES ovarian
  GI50: 2.83 µM
  TGI: 9.2 µM
NCI-H23 lung
  GI50: 2.33 µM
  TGI: 6.47 µM
OVCAR-4 ovarian
  GI50: 21.4 µM
  TGI: 41.2 µM
MOLT-4 leukemia
  GI50: 0.851 µM
  TGI: 2.71 µM
U251 CNS
  GI50: 1.43 µM
  TGI: 2.94 µM
MCF7 breast
  GI50: 5.04 µM
  TGI: 38.1 µM
SN12C renal
  GI50: 2.61 µM
  TGI: 8.56 µM
DU-145 prostate
  GI50: 14.5 µM
  TGI: 30.9 µM

## CCO/C(CCn1[nH]c(=O)c(Cl)c(Cl)c1=O)=N\NC(=O)C(=O)NN
NCI-H23 lung
  TGI: > 100 µM
OVCAR-4 ovarian
  TGI: > 100 µM
MOLT-4 leukemia
  TGI: > 100 µM
U251 CNS
  TGI: > 100 µM
SN12C renal
  TGI: > 100 µM

## O=C1NC(O)c2ccccc2O1 (stereo not drawn)
NCI/ADR-RES ovarian
  TGI: > 100 µM
NCI-H23 lung
  TGI: > 100 µM
OVCAR-4 ovarian
  TGI: > 100 µM
MOLT-4 leukemia
  TGI: > 100 µM
U251 CNS
  TGI: > 100 µM
MCF7 breast
  TGI: > 100 µM
SN12C renal
  TGI: > 100 µM
DU-145 prostate
  TGI: > 100 µM
SR leukemia
  TGI: > 100 µM

## CC1(C)OC2CC3COC(=O)C3CC2O1 (stereo not drawn)
NCI-H23 lung
  TGI: > 100 µM
OVCAR-4 ovarian
  TGI: > 100 µM
MOLT-4 leukemia
  TGI: > 100 µM
U251 CNS
  TGI: > 100 µM
SN12C renal
  TGI: > 100 µM
SR leukemia
  TGI: > 100 µM

## C/C(=N\NC(=O)CC#N)C(CN1CCCCC1)C(c1ccccc1)c1c(O)c2ccccc2oc1=O (stereo not drawn)
NCI/ADR-RES ovarian
  TGI: > 100 µM
NCI-H23 lung
  TGI: > 100 µM
OVCAR-4 ovarian
  TGI: > 100 µM
MOLT-4 leukemia
  TGI: 69.4 µM
U251 CNS
  TGI: > 100 µM
MCF7 breast
  TGI: 40.6 µM
DU-145 prostate
  TGI: > 100 µM

## C#CCN(N=O)C(=O)NCCCCC(NC(=O)OCc1ccccc1)C(=O)OCc1ccccc1 (stereo not drawn)
NCI-H23 lung
  TGI: > 100 µM
OVCAR-4 ovarian
  TGI: > 100 µM
MOLT-4 leukemia
  TGI: 50.6 µM
U251 CNS
  TGI: > 100 µM
SN12C renal
  TGI: > 100 µM

## O=C(Nc1cc(Cl)ccc1Cl)c1cc2cccc(Br)c2oc1=O
NCI-H23 lung
  TGI: > 100 µM
MOLT-4 leukemia
  TGI: > 100 µM
U251 CNS
  TGI: > 100 µM
SN12C renal
  TGI: > 100 µM

## Cc1cc(Br)cc(C)c1NC(=O)C(=O)C(C(=O)c1ccncc1)C1OC(=O)c2ccccc21 (stereo not drawn)
NCI-H23 lung
  TGI: > 100 µM
OVCAR-4 ovarian
  TGI: > 100 µM
MOLT-4 leukemia
  TGI: > 100 µM
U251 CNS
  TGI: > 100 µM
SN12C renal
  TGI: > 100 µM
SR leukemia
  TGI: > 100 µM

## NC(=O)COc1c(Br)cc(Br)cc1Br
NCI-H23 lung
  TGI: > 100 µM
OVCAR-4 ovarian
  TGI: > 100 µM
MOLT-4 leukemia
  TGI: > 100 µM
U251 CNS
  TGI: > 100 µM
SN12C renal
  TGI: > 100 µM
SR leukemia
  TGI: > 100 µM

## O=C(O)CNc1ccc(Cl)c(Cl)c1
T-47D breast
  TGI: > 100 µM
NCI/ADR-RES ovarian
  TGI: 84.6 µM
NCI-H23 lung
  TGI: > 100 µM
OVCAR-4 ovarian
  TGI: > 100 µM
MOLT-4 leukemia
  TGI: > 100 µM
U251 CNS
  TGI: > 100 µM
MCF7 breast
  TGI: 38.7 µM
SN12C renal
  TGI: 94.3 µM
DU-145 prostate
  TGI: > 100 µM

## CCOP(=O)(OCC)/C(C#N)=C\c1ccsc1
NCI-H23 lung
  TGI: > 100 µM
OVCAR-4 ovarian
  TGI: > 100 µM
MOLT-4 leukemia
  TGI: > 100 µM
U251 CNS
  TGI: > 100 µM
SN12C renal
  TGI: > 100 µM

## O=C1NC(=O)C(=Cc2c3ccccc3cc3ccccc23)C(=O)N1
NCI-H23 lung
  TGI: > 100 µM
MOLT-4 leukemia
  TGI: > 100 µM
U251 CNS
  TGI: > 100 µM
SN12C renal
  TGI: > 100 µM

## O=C(O)C(Br)C(Br)C(=O)O (stereo not drawn)
NCI/ADR-RES ovarian
  TGI: > 100 µM
NCI-H23 lung
  TGI: > 100 µM
OVCAR-4 ovarian
  TGI: > 100 µM
U251 CNS
  TGI: > 100 µM
MCF7 breast
  TGI: > 100 µM
SN12C renal
  TGI: > 100 µM
DU-145 prostate
  TGI: > 100 µM
SR leukemia
  TGI: > 100 µM

## COc1cc2c(c(O)c1C)C(=O)CC(c1ccccc1)O2 (stereo not drawn)
NCI-H23 lung
  TGI: > 100 µM
OVCAR-4 ovarian
  TGI: > 10 µM
MOLT-4 leukemia
  TGI: > 100 µM
U251 CNS
  TGI: > 100 µM
SN12C renal
  TGI: > 100 µM

## CCN(CC)CCC(=O)OC1C(C)=CC(C)C(=O)CC(C(C)CC2CCC(O)C(OC)C2)OC(=O)C2CCCCN2C(=O)C(=O)[C@@]2(O)OC(CCC2C)CC(OC)\C(C)=C/C=C/C=C/C(C)CC(C)C(=O)C1OC (stereo partly drawn)
T-47D breast
  TGI: 14.6 µM
NCI/ADR-RES ovarian
  TGI: 25.8 µM
NCI-H23 lung
  TGI: 26.4 µM
OVCAR-4 ovarian
  TGI: 2.27 µM
U251 CNS
  TGI: 23.1 µM
MCF7 breast
  TGI: 16.1 µM
SN12C renal
  TGI: 21.1 µM
DU-145 prostate
  TGI: 19.7 µM

## COC1=CC(=O)C(Br)=CC1=O
NCI-H23 lung
  TGI: 40.8 µM
OVCAR-4 ovarian
  TGI: 32.1 µM
MOLT-4 leukemia
  TGI: 10.4 µM
SN12C renal
  TGI: 33.3 µM

## COc1cc2c3c(n(CCCCNC(=O)OC(C)(C)C)c(=O)c2cc1OC)-c1cc2c(cc1C3=O)OCO2
T-47D breast
  GI50: > 100 µM
  TGI: > 100 µM
NCI/ADR-RES ovarian
  GI50: > 100 µM
  TGI: > 100 µM
NCI-H23 lung
  GI50: > 100 µM
  TGI: > 100 µM
OVCAR-4 ovarian
  GI50: > 100 µM
  TGI: > 100 µM
U251 CNS
  GI50: > 100 µM
  TGI: > 100 µM
MCF7 breast
  GI50: 5.15 µM
  TGI: > 100 µM
SN12C renal
  GI50: 78 µM
  TGI: > 100 µM
DU-145 prostate
  GI50: > 100 µM
  TGI: > 100 µM

## Cc1cc2c(c3nocc13)C(=O)c1ccccc1C2=O
NCI-H23 lung
  TGI: > 100 µM
OVCAR-4 ovarian
  TGI: > 100 µM
MOLT-4 leukemia
  TGI: > 100 µM
U251 CNS
  TGI: > 100 µM
SN12C renal
  TGI: > 100 µM

## CN(C)CCNC(=O)c1cccc2nc3ccc4cccnc4c3nc12
NCI-H23 lung
  TGI: 1.35 µM
OVCAR-4 ovarian
  TGI: 3.21 µM
MOLT-4 leukemia
  TGI: 0.763 µM
U251 CNS
  TGI: 4.39 µM
SN12C renal
  TGI: 4.31 µM

## CCN(CC)CCCOc1ccc2ncnc(Nc3ccc(Oc4cccc(C(F)(F)F)c4)c(Cl)c3)c2c1
T-47D breast
  GI50: 1.41 µM
  TGI: 3.76 µM
NCI-H23 lung
  GI50: 1.56 µM
  TGI: 3.05 µM
OVCAR-4 ovarian
  GI50: 1.54 µM
  TGI: 2.99 µM
MOLT-4 leukemia
  GI50: 1.88 µM
  TGI: 4.49 µM
SN12C renal
  GI50: 1.34 µM
  TGI: 2.69 µM
DU-145 prostate
  GI50: 1.39 µM
  TGI: 2.74 µM
SR leukemia
  GI50: 1.41 µM
  TGI: 3.76 µM

## CCN(CCCl)CCCCCNc1c2ccccc2nc2ccc(OC)cc12
NCI-H23 lung
  TGI: 1.55 µM
OVCAR-4 ovarian
  TGI: 3.42 µM
MOLT-4 leukemia
  TGI: 0.279 µM
U251 CNS
  TGI: 2.23 µM
SN12C renal
  TGI: 1.78 µM

## CCNc1cc2oc(=O)cc(C(F)(F)F)c2cc1C
T-47D breast
  TGI: > 100 µM
NCI/ADR-RES ovarian
  TGI: > 100 µM
NCI-H23 lung
  TGI: > 100 µM
OVCAR-4 ovarian
  TGI: > 100 µM
MOLT-4 leukemia
  TGI: > 100 µM
U251 CNS
  TGI: > 100 µM
MCF7 breast
  TGI: > 100 µM
SN12C renal
  TGI: > 100 µM
DU-145 prostate
  TGI: > 100 µM

## CC(=O)O[C@@]12CO[C@@H]1C[C@H](O)[C@@]1(C)C(=O)[C@H](O)C3=C(C)[C@@H](OC(=O)[C@H](O)[C@@H](NC(=O)OC(C)(C)C)c4ccccc4)C[C@@](O)([C@@H](OC(=O)c4ccccc4)C12)C3(C)C (stereo partly drawn)
NCI/ADR-RES ovarian
  GI50: 0.35 µM and 2.05 µM
  TGI: 2.77 µM and 15.4 µM
NCI-H23 lung
  GI50: < 0.005 µM
  TGI: 50 µM
OVCAR-4 ovarian
  GI50: 12.6 µM
  TGI: > 100 µM
MOLT-4 leukemia
  GI50: 0.0194 µM
  TGI: 52.6 µM
U251 CNS
  GI50: < 0.005 µM
  TGI: 50 µM and > 100 µM
MCF7 breast
  GI50: < 0.005 µM
  TGI: 50 µM and 33.5 µM
SN12C renal
  GI50: < 0.005 µM
  TGI: 50 µM
DU-145 prostate
  GI50: < 0.005 µM
SR leukemia
  GI50: < 0.005 µM
  TGI: 46.3 µM and 14.7 µM

## COc1ccc(-c2nsc3c2NC(=O)CC3c2ccc3c(c2)OCCO3)cc1 (stereo not drawn)
T-47D breast
  GI50: 0.454 µM
  TGI: > 100 µM
NCI-H23 lung
  GI50: 1.38 µM
  TGI: > 100 µM
OVCAR-4 ovarian
  GI50: 2.86 µM
  TGI: > 100 µM
MOLT-4 leukemia
  GI50: 0.622 µM
  TGI: > 100 µM
U251 CNS
  GI50: 0.5 µM
  TGI: > 100 µM
MCF7 breast
  GI50: 0.371 µM
  TGI: > 100 µM
SN12C renal
  GI50: 0.776 µM
  TGI: > 100 µM
DU-145 prostate
  GI50: 1.07 µM
  TGI: > 21.6 µM
SR leukemia
  GI50: 0.301 µM
  TGI: > 100 µM
